Measured values taken from article PMC12434071, “Platinum-group metal half-sandwich complexes of 1-(α-D-glucopyranosyl)-4-hetaryl-1,2,3-triazoles: synthesis, solution equilibrium studies, and investigation of their anticancer and antimicrobial activities” (Frontiers in Chemistry, 2025).

Tests used:
Type in all cases: cell-based
[1] = system: ID8 cells; assay: MTT reduction assay on ID8 cells; details: maximal inhibition; 4 h treatment; maximum concentration 100 µM
Protocol: FIGURE 5 The ruthenium, osmium, and iridium complexes of ligands 4a, 4b, and 5a decrease MTT reduction. For MTT assays, 4 × 10^3 A2780 cells, 3 × 10^3 ID8 cells, or 6 × 10^3 human primary fibroblasts were plated into 96-well plates. Cells were treated with the compounds in the concentrations indicated for 4 h. Data are represented as average ± SD, from four biological replicates on A2780, and from three biological replicates on ID8 and human primary fibroblasts. For the datasets of 5a and Os-5a on human primary fibroblasts, the data represent four biological replicates. Individual assays were performed in duplicate. Values were normalized for vehicle-treated cells, and the absorbance for vehicle-treated cells equals 1. Normality was assessed using the D'Agostino-Pearson test. Statistical significance was assessed using a two-way ANOVA test followed by Tukey's post hoc test. For better visibility, normality, transformations, statistical tests, and p values are presented in an MS Excel sheet at https://figshare.com/s/3a0aa60b66f3f746f41e. Color code: black-free ligand (4a,b or 5a), khaki-ruthenium complex (Ru-4a,b), green-iridium complex (Ir-4a,b), blue-osmium complex (Os-4a,b or Os-5a), and red-rhodium complex (Rh-4a,b). An MTT reduction assay measures the activity of mitochondrial complex I and can be used to detect toxicity ([[…] et al., 2016]). The assay was performed in a manner similar to that described by [[…] et al. (2023b)]. Briefly, cells were plated into 96-well plates the day before the assay. Cells were treated with the compounds for 4 h; then, MTT was added to a 0.5 mg/mL final concentration, and cells were incubated at 37°C in a cell incubator for 40-60 min, as a function of the cell line being assessed. The culture medium was removed, the reduced MTT dye was dissolved in dimethylsulfoxide, and plates were measured in a plate photometer (Thermo Scientific Multiscan GO spectrophotometer, Waltham, MA, United States) at 540 nm. […] In calculations, the readings for these wells were considered to 1, and all readings were expressed relative to these values. […]

[2] = system: ID8 cells; assay: SRB assay on ID8 cells; details: maximal inhibition; 48 h treatment; maximum concentration 100 µM
Protocol: (§1) FIGURE 7 The ruthenium, osmium, and iridium complexes of ligands 4a, 4b, and 5a are cytostatic on ovarian cancer models with a good therapeutic index. For SRB assays, 1.5 × 10^3 A2780 cells, 1.5 × 10^3 ID8 cells, or 4 × 10^3 primary fibroblasts were plated into 96-well plates. Cells were treated with the compounds in the concentrations indicated for 48 h. Data are represented as average ± SD, from four biological replicates on A2780 and human primary fibroblasts, except in the case of Os complexes, where experiments were performed in three biological replicates. ID8 cells were assessed in three biological replicates. Individual assays were performed in duplicate. Values were normalized for vehicle-treated cells, and the absorbance for vehicle-treated cells equals 1. Normality was assessed using the D’Agostino–Pearson test. Statistical significance was assessed using a two-way ANOVA test followed by Tukey’s post hoc test. For better visibility, normality, transformations, statistical tests, and p values are presented in an MS Excel sheet at https://figshare.com/s/3a0aa60b66f3f746f41e. Color code: black—free ligand (4a,b or 5a), khaki—ruthenium complex (Ru-4a,b), blue—osmium complex (Os-4a,b or Os-5a), green—iridium complex (Ir-4a,b), and red—rhodium complex (Rh-4a,b). An SRB assay measures protein content of cells in correlation with the cell number in an assay well and can therefore be used to assess cell proliferation or long-term cytostasis ([Skehan et al., 1990]). Cells were seeded into 96-well plates the day before the treatment for the assay. Cells were treated with the various compounds for 48 h. Then, the medium was removed, and cells were fixed with 10% trichloroacetic acid. Fixed cells were washed in distilled water three times, followed by staining with SRB (0.4 m/V% dissolved in 1% acetic acid) for 10 min. Stained cells were washed in 1% acetic acid five times; the acetic acid was removed, and the cells were left to dry. […] Plates were measured in a plate photometer (Thermo Scientific Multiscan GO spectrophotometer, Waltham, MA, United States) at 540 nm. […]

[3] = system: human primary dermal fibroblasts; assay: SRB assay on human primary dermal fibroblasts; details: maximal inhibition; 48 h treatment; maximum concentration 100 µM
Protocol: as §1

Structure (SMILES): O=C(OC[C@H]1O[C@H](n2cc(-c3ccccn3)nn2)[C@H](OC(=O)c2ccccc2)[C@@H](OC(=O)c2ccccc2)[C@@H]1OC(=O)c1ccccc1)c1ccccc1 [Complex 4a, 1-(2’,3’,4’,6’-Tetra-O-benzoyl-α-D-glucopyranosyl)-4-(pyridin-2-yl)-1,2,3-triazole]
- ID8 MTT max % [1]: 0%
- ID8 SRB max % [2]: 0%
- Fibroblast SRB max % [3]: 11.89%

Structure (SMILES): O=C(OC[C@H]1O[C@H](n2cc(-c3ccc4ccccc4n3)nn2)[C@H](OC(=O)c2ccccc2)[C@@H](OC(=O)c2ccccc2)[C@@H]1OC(=O)c1ccccc1)c1ccccc1 [Complex 4b, 1-(2’,3’,4’,6’-Tetra-O-benzoyl-α-D-glucopyranosyl)-4-(quinolin-2-yl)-1,2,3-triazole]
- ID8 MTT max % [1]: 0%
- ID8 SRB max % [2]: 0%
- Fibroblast SRB max % [3]: 10.76%

Structure (SMILES): CCCCC(=O)OC[C@H]1O[C@H](n2cc(-c3ccccn3)nn2)[C@H](OC(=O)CCCC)[C@@H](OC(=O)CCCC)[C@@H]1OC(=O)CCCC [Complex 5a, 1-(2’,3’,4’,6’-Tetra-O-pentanoyl-α-D-glucopyranosyl)-4-(pyridin-2-yl)-1,2,3-triazole]
- ID8 MTT max % [1]: 15.89%
- ID8 SRB max % [2]: 0%
- Fibroblast SRB max % [3]: 27.97%
